Assay results from article PMC13270500, “Legacy 4(1H)‑Quinolone Scaffolds Activity against Acute and Chronic Toxoplasma gondii Infection” (ACS Infectious Diseases, 2026).

How the values were obtained:
[1] = test system: T. gondii RH (type I) tachyzoites; assay: In vitro tachyzoite growth dose response, RH-RFP (red fluorescence); type: cell-based; conditions: Toxoplasma gondii, RH-RFP type I wild-type, in vitro proliferation; read-out: EC50 against RH tachyzoites
Description: Experiments with T. gondii tachyzoites were carried out with parasites expressing a td-Tomato red fluorescent protein (RFP). , Parasites were purified by passing them through a 25-gauge needle, followed by filtration through a 5 μm filter. Human fibroblasts were cultured in 96-well black plates for 48 (hTERT) or 120 (HFF) hours before the addition of 4,000 fluorescent tachyzoites/well. […] Two technical replicates per concentration were used, and the experiment was repeated in three independent biological replicates. Fluorescence values were measured for up to 7 days, and both excitation (544 nm) and emission (590 nm) were read from the bottom of the plates in a BioTek Synergy H1 Hybrid plate reader. […] The EC50s were calculated using GraphPad Prism software version 10.

[2] = test system: ME49 R4 ATQ^R tachyzoites; assay: In vitro tachyzoite growth dose response, ATQ-resistant strain R4 (crystal violet); type: cell-based; conditions: Toxoplasma gondii, read-out: EC50 against R4 ATQ^R strain

Structure (SMILES): O=C1C(O)=C([C@H]2CC[C@H](c3ccc(Cl)cc3)CC2)C(=O)c2ccccc21 [ATQ, atovaquone]
- EC50 [1]: 14.1 nM
- EC50 [2]: 1870 nM
